ChEMBL document CHEMBL3870312, “Rational modification of donepezil as multifunctional acetylcholinesterase inhibitors for the treatment of Alzheimer's disease” (Eur J Med Chem, 2016)
The source made the active and inactive calls. No cut-off for these calls is given here.

Experiments:
Cholinesterase [1] = target: Cholinesterase (Equus caballus, UniProt P81908)
Description: Inhibition of equine serum BuChE using s-butyrylthiocholine iodide as substrate preincubated for 5 mins followed by substrate addition measured up to 3 mins by Ellman's method

Acetylcholinesterase [2] = target: Acetylcholinesterase (Electrophorus electricus, UniProt O42275)
Description: Inhibition of electric eel AChE using acetylthiocholine iodide as substrate preincubated for 5 mins followed by substrate addition measured up to 3 mins by Ellman's method

Acetylcholinesterase [3] = target: Acetylcholinesterase (Homo sapiens, UniProt P22303)
Sequence of Acetylcholinesterase (Homo sapiens, UniProt P22303) (P22303 whole entry): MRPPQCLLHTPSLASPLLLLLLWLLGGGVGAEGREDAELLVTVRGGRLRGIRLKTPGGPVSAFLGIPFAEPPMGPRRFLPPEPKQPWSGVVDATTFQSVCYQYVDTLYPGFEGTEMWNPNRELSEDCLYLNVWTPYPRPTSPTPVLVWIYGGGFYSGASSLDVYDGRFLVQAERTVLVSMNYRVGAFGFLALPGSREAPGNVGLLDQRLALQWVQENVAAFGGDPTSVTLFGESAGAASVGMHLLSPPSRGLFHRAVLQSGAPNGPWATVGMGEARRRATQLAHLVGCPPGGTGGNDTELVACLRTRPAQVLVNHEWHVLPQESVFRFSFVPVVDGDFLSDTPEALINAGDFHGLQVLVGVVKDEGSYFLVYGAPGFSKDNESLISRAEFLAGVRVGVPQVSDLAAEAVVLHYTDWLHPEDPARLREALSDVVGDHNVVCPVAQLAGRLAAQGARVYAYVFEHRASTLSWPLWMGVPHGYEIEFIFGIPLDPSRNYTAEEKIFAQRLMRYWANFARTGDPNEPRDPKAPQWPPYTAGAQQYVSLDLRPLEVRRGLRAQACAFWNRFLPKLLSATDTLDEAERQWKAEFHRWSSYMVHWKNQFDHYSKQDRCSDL
Description: Inhibition of human erythrocytes AChE using acetylthiocholine iodide as substrate preincubated for 5 mins followed by substrate addition measured up to 3 mins by Ellman's method

Rattus norvegicus = organism: Rattus norvegicus; test: Cytotoxicity against rat PC12 cells assessed as reduction in cell viability at 3.125 to 50 uM after 24 hrs by MTT assay; assay type: toxicity; conditions: pc-12, 24 h
PC-12 [4] = test: Neuroprotective activity against Cu2+-amyloid beta (1 to 42 residues) induced cell death in rat PC12 cells assessed as increase in cell viability at 2.5 to 20 uM preincubated for 24 hrs followed by Cu2+-amyloid beta (1 to 42 residues) addition measured after 24 hrs by MTT assay; assay type: functional, cell-based
PC-12 [5] = test: Neuroprotective activity against amyloid beta (1 to 42 residues) induced cell death in rat PC12 cells assessed as increase in cell viability at 10 to 20 uM preincubated for 24 hrs followed by amyloid beta (1 to 42 residues) addition measured after 24 hrs by MTT assay; assay type: functional, cell-based
PC-12 [6] = test: Neuroprotective activity against Cu2+-amyloid beta (1 to 42 residues) induced cell death in rat PC12 cells by phase-contrast microscopy analysis; assay type: functional, cell-based
PC-12 [7] = test: Neuroprotective activity against amyloid beta (1 to 42 residues) induced cell death in rat PC12 cells by phase-contrast microscopy analysis; assay type: functional, cell-based
[8] = target: Amyloid-beta precursor protein (Homo sapiens) (UniProt P05067); conditions: at 20 µM
Sequence of Amyloid-beta precursor protein (Homo sapiens) (P05067 whole entry): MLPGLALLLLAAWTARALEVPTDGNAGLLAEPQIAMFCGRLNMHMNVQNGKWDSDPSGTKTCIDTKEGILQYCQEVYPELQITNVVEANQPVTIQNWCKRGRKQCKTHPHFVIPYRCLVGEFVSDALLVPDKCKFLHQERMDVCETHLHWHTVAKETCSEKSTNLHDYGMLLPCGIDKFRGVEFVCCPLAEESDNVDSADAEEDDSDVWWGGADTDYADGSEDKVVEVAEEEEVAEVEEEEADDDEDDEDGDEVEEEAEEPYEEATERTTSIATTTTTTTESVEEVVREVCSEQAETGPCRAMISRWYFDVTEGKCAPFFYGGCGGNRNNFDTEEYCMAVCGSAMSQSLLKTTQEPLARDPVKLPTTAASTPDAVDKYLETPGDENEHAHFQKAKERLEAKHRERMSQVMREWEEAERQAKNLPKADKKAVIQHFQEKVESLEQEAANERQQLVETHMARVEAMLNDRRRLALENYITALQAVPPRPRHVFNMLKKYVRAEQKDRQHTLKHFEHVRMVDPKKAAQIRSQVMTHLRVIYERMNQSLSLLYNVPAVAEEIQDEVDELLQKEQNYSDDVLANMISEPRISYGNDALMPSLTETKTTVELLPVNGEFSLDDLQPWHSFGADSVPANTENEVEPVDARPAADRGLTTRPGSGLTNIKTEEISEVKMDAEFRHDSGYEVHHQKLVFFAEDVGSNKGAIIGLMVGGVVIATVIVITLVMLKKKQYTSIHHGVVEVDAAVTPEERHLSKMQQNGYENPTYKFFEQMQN
Description: Inhibition of self-mediated aggregation of amyloid beta (1 to 42 residues) (unknown origin) at 20 uM incubated for 46 to 48 hrs by Thioflavin T binding assay relative to control

in vitro = conditions: PAMPA
Description: Effective permeability of the compound after 18 hrs by PAMPA

Cholinesterase [9] = target: Cholinesterase (Homo sapiens, UniProt P06276)
Sequence of Cholinesterase (Homo sapiens, UniProt P06276) (P06276 whole entry, the tested form may be a part): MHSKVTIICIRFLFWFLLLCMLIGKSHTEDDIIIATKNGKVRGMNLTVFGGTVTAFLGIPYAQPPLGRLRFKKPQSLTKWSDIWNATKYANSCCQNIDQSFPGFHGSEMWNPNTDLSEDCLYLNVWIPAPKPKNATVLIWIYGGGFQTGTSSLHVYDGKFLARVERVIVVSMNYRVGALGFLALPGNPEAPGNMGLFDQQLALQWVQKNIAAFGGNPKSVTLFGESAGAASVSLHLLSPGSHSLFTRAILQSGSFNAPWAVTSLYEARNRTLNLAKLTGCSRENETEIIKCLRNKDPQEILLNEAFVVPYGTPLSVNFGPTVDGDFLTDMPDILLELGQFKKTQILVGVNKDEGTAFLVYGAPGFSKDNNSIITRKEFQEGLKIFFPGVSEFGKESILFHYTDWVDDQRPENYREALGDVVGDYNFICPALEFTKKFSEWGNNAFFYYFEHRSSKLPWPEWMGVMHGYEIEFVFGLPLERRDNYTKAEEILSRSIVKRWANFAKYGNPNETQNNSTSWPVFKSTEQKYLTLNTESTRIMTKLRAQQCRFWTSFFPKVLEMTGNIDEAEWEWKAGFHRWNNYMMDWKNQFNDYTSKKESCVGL
Description: Inhibition of human serum BuChE using s-butyrylthiocholine iodide as substrate preincubated for 5 mins followed by substrate addition measured up to 3 mins by Ellman's method

PC-12 [10] = test: Neuroprotective activity against amyloid beta (1 to 42 residues) induced cell death in rat PC12 cells assessed as increase in cell viability at 20 uM preincubated for 24 hrs followed by amyloid beta (1 to 42 residues) addition measured after 24 hrs by MTT assay; assay type: functional, cell-based

Sequence of Acetylcholinesterase (Electrophorus electricus, UniProt O42275) (O42275 whole entry): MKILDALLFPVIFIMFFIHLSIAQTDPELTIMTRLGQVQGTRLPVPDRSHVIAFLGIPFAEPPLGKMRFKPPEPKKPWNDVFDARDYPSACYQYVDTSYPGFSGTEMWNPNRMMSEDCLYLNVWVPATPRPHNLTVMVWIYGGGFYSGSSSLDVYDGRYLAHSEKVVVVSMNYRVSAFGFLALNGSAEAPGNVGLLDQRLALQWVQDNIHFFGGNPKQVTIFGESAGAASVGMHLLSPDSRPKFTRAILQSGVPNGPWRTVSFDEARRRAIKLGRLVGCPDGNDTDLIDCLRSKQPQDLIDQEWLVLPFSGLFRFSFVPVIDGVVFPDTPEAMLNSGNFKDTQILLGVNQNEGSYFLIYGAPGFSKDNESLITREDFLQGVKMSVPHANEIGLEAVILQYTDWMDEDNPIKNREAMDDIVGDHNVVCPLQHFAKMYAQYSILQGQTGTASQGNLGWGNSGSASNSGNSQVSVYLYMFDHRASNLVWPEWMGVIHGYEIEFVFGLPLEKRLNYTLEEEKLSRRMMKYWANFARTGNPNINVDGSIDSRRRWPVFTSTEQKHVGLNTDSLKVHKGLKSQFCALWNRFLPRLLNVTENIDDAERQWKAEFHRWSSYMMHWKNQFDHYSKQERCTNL
Sequence of Cholinesterase (Equus caballus, UniProt P81908) (P81908 whole entry): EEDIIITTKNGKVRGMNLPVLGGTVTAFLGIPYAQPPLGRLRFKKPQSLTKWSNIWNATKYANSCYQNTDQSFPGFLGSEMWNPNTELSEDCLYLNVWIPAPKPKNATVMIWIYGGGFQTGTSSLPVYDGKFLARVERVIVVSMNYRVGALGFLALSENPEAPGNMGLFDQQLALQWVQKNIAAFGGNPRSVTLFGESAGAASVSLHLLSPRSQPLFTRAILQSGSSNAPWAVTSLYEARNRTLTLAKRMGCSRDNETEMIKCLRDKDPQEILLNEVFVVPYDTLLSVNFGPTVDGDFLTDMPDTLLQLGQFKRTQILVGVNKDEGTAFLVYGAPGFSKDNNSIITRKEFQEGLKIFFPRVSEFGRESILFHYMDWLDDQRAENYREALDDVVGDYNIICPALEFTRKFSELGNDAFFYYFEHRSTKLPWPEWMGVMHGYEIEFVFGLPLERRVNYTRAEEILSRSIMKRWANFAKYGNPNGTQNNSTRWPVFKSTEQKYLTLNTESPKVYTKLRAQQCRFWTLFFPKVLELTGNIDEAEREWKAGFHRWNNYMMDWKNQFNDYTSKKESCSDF

**Q.** Which IC50 (Cholinesterase [1]) does the source give for `COc1cc2c(cc1OC)C(=O)C(CC1CCN(Cc3ccccc3C)CC1)C2` (stereo not given) here?
**A.** The IC50 was 38.1 µM.

**Q.** What about the IC50 (Acetylcholinesterase [2]) of the same compound?
**A.** Its IC50 is 0.184 µM.

**Q.** And the IC50 (Acetylcholinesterase [3])?
**A.** The IC50 was 0.243 µM.

**Q.** Which results are given for `COc1cc2c(cc1OC)C(=O)C(CC1CCN(Cc3ccc(O)c4ncccc34)CC1)C2` (stereo not given)?
**A.** Activity (Rattus norvegicus): Non-Toxic; Activity (PC-12 [4]): Active; Activity (PC-12 [5]): Active; Activity (PC-12 [6]): Active; Activity (PC-12 [7]): Active; IC50 (Cholinesterase [1]): 7.65 µM; IC50 (Acetylcholinesterase [2]): 27.3 µM; IC50 (Acetylcholinesterase [3]): 20.9 µM; inhibition [8]: 51.1%; Papp at 18 h (in vitro): 8.8 ×10⁻⁶ cm/s

**Q.** With `COc1cc2c(cc1OC)C(=O)C(CC1CCN(Cc3cccc(C(F)(F)F)c3)CC1)C2` (stereo not given) as the compound, how does the IC50 (Cholinesterase [1]) read?
**A.** Its IC50 is 18.2 µM.

**Q.** And the IC50 (Acetylcholinesterase [2])?
**A.** Its IC50 is 0.197 µM.

**Q.** What about the IC50 (Acetylcholinesterase [3]) of the same compound?
**A.** The IC50 was 2.12 µM.

**Q.** What about the IC50 (Cholinesterase [9]) of the same compound?
**A.** Its IC50 is 76.9 µM.

**Q.** Which IC50 (Cholinesterase [1]) does the source give for `COc1cc2c(cc1OC)C(=O)C(CC1CCN(Cc3ccccc3[N+](=O)[O-])CC1)C2` (stereo not given) here?
**A.** The IC50 was 31.1 µM.

**Q.** And the IC50 (Acetylcholinesterase [2])?
**A.** The IC50 was 0.106 µM.

**Q.** And the IC50 (Acetylcholinesterase [3])?
**A.** Its IC50 is 3.11 µM.

**Q.** And the IC50 (Cholinesterase [9])?
**A.** Its IC50 is 91.2 µM.

**Q.** For `COc1cc2c(cc1OC)C(=O)C(CC1CCN(Cc3cccc([N+](=O)[O-])c3)CC1)C2` (stereo not given), which IC50 (Cholinesterase [1]) is on record?
**A.** The IC50 was 42.4 µM.

**Q.** And the IC50 (Acetylcholinesterase [2])?
**A.** Its IC50 is 0.414 µM.

**Q.** And the IC50 (Acetylcholinesterase [3])?
**A.** Its IC50 is 0.652 µM.

**Q.** For `COc1cc2c(cc1OC)C(=O)C(CC1CCN(Cc3ncc(C)cc3C)CC1)C2` (stereo not given), which IC50 (Cholinesterase [1]) is on record?
**A.** Its IC50 is 6.31 µM.

**Q.** What about the IC50 (Acetylcholinesterase [2]) of the same compound?
**A.** Its IC50 is 1.01 µM.

**Q.** What about the IC50 (Acetylcholinesterase [3]) of the same compound?
**A.** Its IC50 is 0.814 µM.

**Q.** And the IC50 (Cholinesterase [9])?
**A.** Its IC50 is 8.55 µM.

**Q.** For `COc1cc2c(cc1OC)C(=O)C(CC1CCN(Cc3ccc(C)cc3)CC1)C2` (stereo not given), which Activity (Rattus norvegicus) is on record?
**A.** The Activity was “Non-Toxic”.

**Q.** What about the IC50 (Cholinesterase [1]) of the same compound?
**A.** Its IC50 is 6.67 µM.

**Q.** What about the IC50 (Acetylcholinesterase [2]) of the same compound?
**A.** The IC50 was 0.221 µM.

**Q.** What about the IC50 (Acetylcholinesterase [3]) of the same compound?
**A.** The IC50 was 0.127 µM.

**Q.** And the IC50 (Cholinesterase [9])?
**A.** Its IC50 is 43.8 µM.

**Q.** With `COc1cc2c(cc1OC)C(=O)C(CC1CCN(Cc3ccc(F)cc3)CC1)C2` (stereo not given) as the compound, how does the IC50 (Cholinesterase [1]) read?
**A.** The IC50 was 2.31 µM.

**Q.** And the IC50 (Acetylcholinesterase [2])?
**A.** The IC50 was 0.13 µM.

**Q.** And the IC50 (Acetylcholinesterase [3])?
**A.** The IC50 was 0.041 µM.

**Q.** And the IC50 (Cholinesterase [9])?
**A.** Its IC50 is 8.13 µM.

**Q.** For `COc1cc2c(cc1OC)C(=O)C(CC1CCN(Cc3cccc(Br)n3)CC1)C2` (stereo not given), which IC50 (Cholinesterase [1]) is on record?
**A.** The IC50 was 17.5 µM.

**Q.** And the IC50 (Acetylcholinesterase [2])?
**A.** Its IC50 is 0.253 µM.

**Q.** And the IC50 (Acetylcholinesterase [3])?
**A.** Its IC50 is 1.98 µM.

**Q.** For `COc1cc2c(cc1OC)C(=O)C(CC1CCN(Cc3ccccc3)CC1)C2` (stereo not given), which inhibition [8] is on record?
**A.** Its inhibition is greater than 10%.

**Q.** Which IC50 (Cholinesterase [1]) does the source give for `COc1cc2c(cc1OC)C(=O)C(CC1CCN(Cc3ccc4cccc(O)c4n3)CC1)C2` (stereo not given) here?
**A.** The IC50 was 4.53 µM.

**Q.** What about the IC50 (Acetylcholinesterase [2]) of the same compound?
**A.** Its IC50 is 6.42 µM.

**Q.** What about the IC50 (Acetylcholinesterase [3]) of the same compound?
**A.** Its IC50 is 29.8 µM.

**Q.** What about the IC50 (Cholinesterase [9]) of the same compound?
**A.** The IC50 was 37.4 µM.

**Q.** And the inhibition [8]?
**A.** Its inhibition is 44.8%.

**Q.** And the Papp at 18 h (in vitro)?
**A.** The Papp at 18 h was 6.1 ×10⁻⁶ cm/s.

**Q.** Which IC50 (Cholinesterase [1]) does the source give for `COc1cc2c(cc1OC)C(=O)C(CC1CCN(Cc3ccc([N+](=O)[O-])cc3)CC1)C2` (stereo not given) here?
**A.** Its IC50 is 12.2 µM.

**Q.** And the IC50 (Acetylcholinesterase [2])?
**A.** The IC50 was 4.02 µM.

**Q.** What about the IC50 (Acetylcholinesterase [3]) of the same compound?
**A.** The IC50 was 1.91 µM.

**Q.** And the IC50 (Cholinesterase [9])?
**A.** Its IC50 is 85.8 µM.

**Q.** For `COc1ccc2[nH]cc(CCNC(C)=O)c2c1`, which Activity (PC-12 [10]) is on record?
**A.** Its Activity is “Active”.

**Q.** Which IC50 (Cholinesterase [1]) does the source give for `COc1cc2c(cc1OC)C(=O)C(CC1CCN(Cc3ccc(Cl)cc3)CC1)C2` (stereo not given) here?
**A.** Its IC50 is 89.4 µM.

**Q.** And the IC50 (Acetylcholinesterase [2])?
**A.** The IC50 was 4.8 µM.

**Q.** What about the IC50 (Acetylcholinesterase [3]) of the same compound?
**A.** The IC50 was 2.86 µM.

**Q.** And the IC50 (Cholinesterase [9])?
**A.** The IC50 was 81.6 µM.

**Q.** With `COc1cc2c(cc1OC)C(=O)C(CC1CCN(Cc3cccc(Cl)c3)CC1)C2` (stereo not given) as the compound, how does the IC50 (Cholinesterase [1]) read?
**A.** The IC50 was 68.9 µM.

**Q.** What about the IC50 (Acetylcholinesterase [2]) of the same compound?
**A.** The IC50 was 0.237 µM.

**Q.** What about the IC50 (Acetylcholinesterase [3]) of the same compound?
**A.** The IC50 was 0.114 µM.

**Q.** And the IC50 (Cholinesterase [9])?
**A.** Its IC50 is 50.2 µM.
